Experimental data as given in patent US12077503B2, “Substituted cyclic amides and their use as herbicides” (FMC CORPORATION, priority 2015, dated 2024).

Key:
Format in all cases: in vivo
[1] = tested on: barnyardgrass (Echinochloa crus-galli); assay: Test G Pre-Emergence Protocol; details: Echinochloa crus-galli, pre-emergence, 312 h, evaluated after 13 days; for pest or weed control at 15.625 g/ha: 15.625 g ai/ha; for pest or weed control at 15.625 g/ha / pest or weed control at 250 g/ha: read-out: Barnyardgrass damage rating (100=total damage to plant; 0=no damage to plant); for pest or weed control at 62.5 g/ha: 62.5 g ai/ha, 100=total damage to plant, 0=no damage to plant, read-out: Barnyardgrass damage rating; for pest or weed control at 250 g/ha: 250 g ai/ha
How it was run: (§1)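 One day after sowing, pots are treated with a spray of test compound formulated in acetone/water 50:50 plus 0.5% Tween 20, giving 15.625, 62.5 or 250 g/ha. Evaluation on a 0–100 damage scale follows 13 days of glasshouse growth.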

[2] = tested on: velvetleaf (Abutilon theophrasti); assay: Test G Pre-Emergence Protocol; details: Abutilon theophrasti, pre-emergence, 312 h, evaluated after 13 days; for pest or weed control at 15.625 g/ha: 15.625 g ai/ha; for pest or weed control at 15.625 g/ha / pest or weed control at 250 g/ha: read-out: Velvetleaf damage rating (100=total damage to plant; 0=no damage to plant); for pest or weed control at 62.5 g/ha: 62.5 g ai/ha, 100=total damage to plant, 0=no damage to plant, read-out: Velvetleaf damage rating; for pest or weed control at 250 g/ha: 250 g ai/ha
How it was run: as §1

[3] = tested on: giant foxtail (Setaria faberi); assay: Test G Pre-Emergence Protocol; details: Setaria faberi, pre-emergence, 312 h, evaluated after 13 days; for pest or weed control at 15.625 g/ha: 15.625 g ai/ha; for pest or weed control at 15.625 g/ha / pest or weed control at 250 g/ha: read-out: Foxtail, Giant damage rating (100=total damage to plant; 0=no damage to plant); for pest or weed control at 62.5 g/ha: 62.5 g ai/ha, 100=total damage to plant, 0=no damage to plant, read-out: Foxtail, Giant damage rating; for pest or weed control at 250 g/ha: 250 g ai/ha
How it was run: as §1

[4] = tested on: redroot pigweed (Amaranthus retroflexus); assay: Test G Pre-Emergence Protocol; details: Amaranthus retroflexus, pre-emergence, 312 h, evaluated after 13 days; for pest or weed control at 15.625 g/ha: 15.625 g ai/ha; for pest or weed control at 15.625 g/ha / pest or weed control at 250 g/ha: read-out: Pigweed, Redroot damage rating (100=total damage to plant; 0=no damage to plant); for pest or weed control at 62.5 g/ha: 62.5 g ai/ha, 100=total damage to plant, 0=no damage to plant, read-out: Pigweed, Redroot damage rating; for pest or weed control at 250 g/ha: 250 g ai/ha
How it was run: as §1

[5] = tested on: ivy-leaved morning glory (Ipomoea hederacea); assay: Test G Pre-Emergence Protocol; details: Ipomoea, pre-emergence, 312 h, evaluated after 13 days; for pest or weed control at 15.625 g/ha: 15.625 g ai/ha; for pest or weed control at 15.625 g/ha / pest or weed control at 250 g/ha: read-out: Morningglory, Ivy-leaved damage rating (100=total damage to plant; 0=no damage to plant); for pest or weed control at 62.5 g/ha: 62.5 g ai/ha, 100=total damage to plant, 0=no damage to plant, read-out: Morningglory, Ivy-leaved damage rating; for pest or weed control at 250 g/ha: 250 g ai/ha
How it was run: as §1

corn (Zea mays) [6] = assay: Test G Pre-Emergence Protocol; details: Zea mays, pre-emergence, 312 h, evaluated after 13 days; for plant injury at 15.625 g/ha: 15.625 g ai/ha; for plant injury at 15.625 g/ha / plant injury at 250 g/ha: read-out: Corn damage rating (100=total damage to plant; 0=no damage to plant); for plant injury at 62.5 g/ha: 62.5 g ai/ha, 100=total damage to plant, 0=no damage to plant, read-out: Corn damage rating; for plant injury at 250 g/ha: 250 g ai/ha
How it was run: as §1

[7] = tested on: barnyardgrass (Echinochloa crus-galli); assay: Test G Post-Emergence Protocol; details: Echinochloa crus-galli, post-emergence, 312 h, read-out: Barnyardgrass damage rating; for pest or weed control at 15.625 g/ha: 15.625 g ai/ha, evaluated after 13 days (100=total damage to plant; 0=no damage to plant); for pest or weed control at 62.5 g/ha: 62.5 g ai/ha; for pest or weed control at 62.5 g/ha / pest or weed control at 250 g/ha: evaluated after 13 days, 100=total damage to plant, 0=no damage to plant; for pest or weed control at 250 g/ha: 250 g ai/ha
How it was run: (§2)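 A glasshouse post-emergence test: 8-day-old plants sprayed at 15.625, 62.5 or 250 g/ha, then grown at 24/16 °C day/night with 14 h light and 65% humidity. Damage rated 13 days later, 0–100.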

[8] = tested on: velvetleaf (Abutilon theophrasti); assay: Test G Post-Emergence Protocol; details: Abutilon theophrasti, post-emergence, 312 h, read-out: Velvetleaf damage rating; for pest or weed control at 15.625 g/ha: 15.625 g ai/ha, evaluated after 13 days (100=total damage to plant; 0=no damage to plant); for pest or weed control at 62.5 g/ha: 62.5 g ai/ha; for pest or weed control at 62.5 g/ha / pest or weed control at 250 g/ha: evaluated after 13 days, 100=total damage to plant, 0=no damage to plant; for pest or weed control at 250 g/ha: 250 g ai/ha
How it was run: as §2

[9] = tested on: giant foxtail (Setaria faberi); assay: Test G Post-Emergence Protocol; details: Setaria faberi, post-emergence, 312 h, read-out: Foxtail, Giant damage rating; for pest or weed control at 15.625 g/ha: 15.625 g ai/ha, evaluated after 13 days (100=total damage to plant; 0=no damage to plant); for pest or weed control at 62.5 g/ha: 62.5 g ai/ha
How it was run: as §2

[10] = tested on: redroot pigweed (Amaranthus retroflexus); assay: Test G Post-Emergence Protocol; details: Amaranthus retroflexus, post-emergence, 312 h, read-out: Pigweed, Redroot damage rating; for pest or weed control at 15.625 g/ha: 15.625 g ai/ha, evaluated after 13 days (100=total damage to plant; 0=no damage to plant); for pest or weed control at 62.5 g/ha: 62.5 g ai/ha; for pest or weed control at 62.5 g/ha / pest or weed control at 250 g/ha: evaluated after 13 days, 100=total damage to plant, 0=no damage to plant; for pest or weed control at 250 g/ha: 250 g ai/ha
How it was run: as §2

[11] = tested on: ivy-leaved morning glory (Ipomoea hederacea); assay: Test G Post-Emergence Protocol; details: Ipomoea, post-emergence, 312 h, read-out: Morningglory, Ivy-leaved damage rating; for pest or weed control at 15.625 g/ha: 15.625 g ai/ha, evaluated after 13 days (100=total damage to plant; 0=no damage to plant); for pest or weed control at 62.5 g/ha: 62.5 g ai/ha; for pest or weed control at 62.5 g/ha / pest or weed control at 250 g/ha: evaluated after 13 days, 100=total damage to plant, 0=no damage to plant; for pest or weed control at 250 g/ha: 250 g ai/ha
How it was run: as §2

corn (Zea mays) [12] = assay: Test G Post-Emergence Protocol; details: Zea mays, post-emergence, 312 h, read-out: Corn damage rating; for plant injury at 15.625 g/ha: 15.625 g ai/ha, evaluated after 13 days (100=total damage to plant; 0=no damage to plant); for plant injury at 62.5 g/ha: 62.5 g ai/ha; for plant injury at 62.5 g/ha / plant injury at 250 g/ha: evaluated after 13 days, 100=total damage to plant, 0=no damage to plant; for plant injury at 250 g/ha: 250 g ai/ha
How it was run: as §2

[13] = evaluated after 13 days, 100=total damage to plant, 0=no damage to plant

SMILES | pest or weed control at 15.625 g/ha [1] [%] | pest or weed control at 62.5 g/ha [1] [%] | pest or weed control at 250 g/ha [1] [%] | pest or weed control at 15.625 g/ha [2] [%] | pest or weed control at 62.5 g/ha [2] [%] | pest or weed control at 250 g/ha [2] [%] | pest or weed control at 15.625 g/ha [3] [%] | pest or weed control at 62.5 g/ha [3] [%] | pest or weed control at 250 g/ha [3] [%] | pest or weed control at 15.625 g/ha [4] [%] | pest or weed control at 62.5 g/ha [4] [%] | pest or weed control at 250 g/ha [4] [%] | pest or weed control at 15.625 g/ha [5] [%] | pest or weed control at 62.5 g/ha [5] [%] | pest or weed control at 250 g/ha [5] [%] | plant injury at 15.625 g/ha (corn (Zea mays) [6]) [%] | plant injury at 62.5 g/ha (corn (Zea mays) [6]) [%] | plant injury at 250 g/ha (corn (Zea mays) [6]) [%] | pest or weed control at 15.625 g/ha [7] [%] | pest or weed control at 62.5 g/ha [7] [%] | also measured
CN1C[C@H](c2cc(Cl)cc(C(F)(F)F)c2)[C@@H](C(=O)Nc2ccccc2S(C)(=O)=O)C1=O (racemic) [Compound 1797] | 40 | 60 | 80 | 0 | 20 | 70 | 60 | 80 | 90 | 0 | 0 | 60 | 0 | 10 | 20 | 10 | 50 | 70 | 30 | 70 | pest or weed control at 250 g/ha [7]: 80%; pest or weed control at 15.625 g/ha [8]: 60%; pest or weed control at 62.5 g/ha [8]: 80%; pest or weed control at 250 g/ha [8]: 90%; pest or weed control at 15.625 g/ha [9]: 50%; pest or weed control at 62.5 g/ha [9, 13]: 80%; pest or weed control at 250 g/ha ([9]; 250 g ai/ha, evaluated after 13 days, 100=total damage to plant, 0=no damage to plant): 80%; pest or weed control at 15.625 g/ha [10]: 30%; pest or weed control at 62.5 g/ha [10]: 70%; pest or weed control at 250 g/ha [10]: 80%; pest or weed control at 15.625 g/ha [11]: 0%; pest or weed control at 62.5 g/ha [11]: 40%; pest or weed control at 250 g/ha [11]: 80%; plant injury at 15.625 g/ha (corn (Zea mays) [12]): 10%; plant injury at 62.5 g/ha (corn (Zea mays) [12]): 60%; plant injury at 250 g/ha (corn (Zea mays) [12]): 70%
CN1C[C@H](c2ccc(C(F)(F)F)cc2)[C@@H](C(=O)Nc2cccnc2S(C)(=O)=O)C1=O (racemic) [Compound 1789] | 0 | 0 | 0 | 0 | 0 | 20 | 0 | 0 | 0 | 0 | 0 | 20 | 0 | 0 | 0 | 0 | 0 | 10 | 0 | 0 | pest or weed control at 250 g/ha [7]: 0%; pest or weed control at 15.625 g/ha [8]: 0%; pest or weed control at 62.5 g/ha [8]: 0%; pest or weed control at 250 g/ha [8]: 20%; pest or weed control at 15.625 g/ha [9]: 0%; pest or weed control at 62.5 g/ha [9, 13]: 0%; pest or weed control at 15.625 g/ha [10]: 0%; pest or weed control at 62.5 g/ha [10]: 0%; pest or weed control at 250 g/ha [10]: 20%; pest or weed control at 15.625 g/ha [11]: 0%; pest or weed control at 62.5 g/ha [11]: 0%; pest or weed control at 250 g/ha [11]: 0%; plant injury at 15.625 g/ha (corn (Zea mays) [12]): 0%; plant injury at 62.5 g/ha (corn (Zea mays) [12]): 0%; plant injury at 250 g/ha (corn (Zea mays) [12]): 10%
